Earlier results, collected in paper PMC6503469, “The Use of Molecular Descriptors To Model Pharmaceutical Uptake by a Fish Primary Gill Cell Culture Epithelium” (Environmental Science & Technology, 2018).
Structures can show the parent of a compound that is named as a salt. Where two headings read alike, the source gives them in different places.

Columns and labels:
[1] = source not stated; for PSA: polar surface area; for log D: octanol–water distribution coefficient at pH 7.4; for log Kow: octanol–water partition coefficient; for log S: molecular descriptor (solubility); for pKa: molecular descriptor
[2] = design: method as in PMID 28853873; settings: adult zebrafish
[3] = not given; remark: listed apart in the source
[4] = design: method as in Chen et al 2017; settings: pH 7.6, after 6h exposure to 12.5 µg/L; ref Chen et al 2017
[5] = design: method as in Nallani et al 2012; settings: pH 7.4, exposed to 83 µg/L for 7 days; ref Nallani et al 2012

PSA [1] [Å^2] | log D [1] | log Kow [1] | log S [1] | pKa [1] | SMILES | other results
115.04 | – | – | – | – | CC(=O)Nc1nnc(S(N)(=O)=O)s1 [acetazolamide] | –
54.37 | 0.06 | 0.97 | – | – | CC(C(=O)O)c1cccc(C(=O)c2ccccc2)c1 (centres unmarked) [ketoprofen] | Plasma concentration (pH 7.4, after 14 days exposure to 91 µg/L, ref Cuklev et al 2012): 1 ng/mL
52.16 | 1.22 | 1.9 | –4.8 | – | O=C(O)Cc1ccccc1Nc1c(Cl)cccc1Cl [diclofenac, diclofenac sodium salt] | Plasma concentration ([3]; pH 7.6, after 48h exposure to 24 µg/L, ref Bickley et al 2017): 205 ng/mL; Plasma concentration ([3]; pH 7.6, after 21 days exposed to 0.95 µg/L, ref Bickley et al 2017): 26 ng/mL
106.97 | 4.16 | 3.49 | – | 13.85 | C[C@H]1C[C@H]2[C@@H]3CCC4=CC(=O)C=C[C@]4(C)[C@@]3(Cl)[C@@H](O)C[C@]2(C)[C@@]1(O)C(=O)CO [beclomethasone] | Plasma concentration ([3]; pH 7.4, 21 days exposure to 816 ng/L, dipropionate rapidly metabolized, combined values, ref Margiotta-Casaluci et al. 2016): 60 ± 35 ng/mL
40.10 | 0.29 | 2.48 | –3.5 | – | CC(C)Cc1ccc(C(C)C(=O)O)cc1 (centres unmarked) [ibuprofen, ibuprofen sodium salt] | Plasma concentration ([3]; pH 7.4, after 24h exposed to 107 µg/L, ref Patel et al 2016): 550 ng/mL
46.53 | 1.40 | 4.77 | –4 | 4.42 | Cc1ccc(C)c(OCCCC(C)(C)C(=O)O)c1 [gemfibrozil] | Plasma concentration [4]: 183 ng/mL
37.30 | 2.98 | 3.15 | – | 17.59 | C#C[C@]1(O)CC[C@H]2[C@@H]3CCC4=CC(=O)CC[C@@H]4[C@H]3CC[C@@]21C [norethindrone, norethindrone-19] | Plasma concentration [5]: 950 ng/mL

SMILES | PSA [1] [Å^2] | log D [1] | log Kow [1] | log S [1] | pKa [1] | other results
NC(=O)N1c2ccccc2C=Cc2ccccc21 [carbamazepine] | 46.33 | 2.28 | 2.28 | –3.2 | – | Plasma concentration (pH 7.7, after 10 days exposed to 43 µg/L, ref Lahti et al 2011): 25 ng/mL; BCFss [2]: 1.41 ± 7.13 L kg^–1
CC(=O)CC(c1ccccc1)c1c(O)c2ccccc2oc1=O (centres unmarked) [warfarin] | – | 0.16 | – | –3.8 | 5.08 | –
